Experimental data from patent US6573262B2, “Composition and antiviral activity of substituted indoleoxoacetic piperazine derivatives” (priority 2000, dated 2003).

Test system: HIV-1 single-round infectious reporter virus
Assay: microbe, parasite or virus in culture
Type: cell-based
Conditions: for EC50: Human immunodeficiency virus 1, HeLa-CD4/CCR5, 72 h, read-out: EC50 Group from Table 1; for inhibition at 10 µM: Human immunodeficiency virus 1, HeLa-CD4/CCR5, read-out: % Inhibition @ 10 uM

Compound	EC50	inhibition at 10 µM
O=C(NC1=NCCS1)c1ccc(F)c2c(C(=O)C(=O)N3CCN(C(=O)c4ccccc4)CC3)c[nH]c12 [Example 36]	< 1000 nM	> 98%
O=C(C(=O)N1CCN(C(=O)c2ccccc2)CC1)c1c[nH]c2c(-c3nnn(CCO)n3)ccc(F)c12 [Example 112]	< 1000 nM	
N=C(Nc1cccnc1N)c1ccc(F)c2c(C(=O)C(=O)N3CCN(C(=O)c4ccccc4)CC3)c[nH]c12 [Example 166]	< 1000 nM	
Cc1n[nH]c(-c2ccc(F)c3c(C(=O)C(=O)N4CCN(C(=O)c5ccccc5)CC4)c[nH]c23)n1 [Example 78]	< 1000 nM	
Nc1nc(-c2ccc(F)c3c(C(=O)C(=O)N4CCN(C(=O)c5ccccc5)CC4)c[nH]c23)no1 [Example 83]	< 1000 nM	> 98%
C[C@@H]1CN(C(=O)c2ccccc2)CCN1C(=O)C(=O)c1c[nH]c2c(-c3noc(NC4CCCC4)n3)ccc(F)c12 [Example 162]	< 1000 nM	
O=C(C(=O)N1CCN(C(=O)c2ccccc2)CC1)c1c[nH]c2c(C(=O)NS(=O)(=O)c3ccccc3)cccc12 [Example 62]	1000 to 5000 nM	74%
O=C(NCc1cccs1)c1ccc(F)c2c(C(=O)C(=O)N3CCN(C(=O)c4ccccc4)CC3)c[nH]c12 [Example 51]	< 1000 nM	> 98%
COC(=O)c1c[nH]c(-c2ccc(F)c3c(C(=O)C(=O)N4CCN(C(=O)c5ccccc5)CC4)c[nH]c23)n1 [Example 146]	< 1000 nM	
Nc1nc(-c2ccc(F)c3c(C(=O)C(=O)N4CCN(C(=O)c5ccccn5)CC4)c[nH]c23)no1 [Example 189]	< 1000 nM	
O=C(Nc1nn[nH]n1)c1ccc(F)c2c(C(=O)C(=O)N3CCN(C(=O)c4ccccc4)CC3)c[nH]c12 [Example 54]	< 1000 nM	> 98%
O=C(NCCN1CCOCC1)c1ccc(F)c2c(C(=O)C(=O)N3CCN(C(=O)c4ccccc4)CC3)c[nH]c12 [Example 52]	< 1000 nM	> 98%
COC(=O)Cc1nc(-c2ccc(F)c3c(C(=O)C(=O)N4CCN(C(=O)c5ccccc5)CC4)c[nH]c23)no1 [Example 98]	< 1000 nM	
O=C(NCCc1c[nH]c2ccccc12)c1ccc(F)c2c(C(=O)C(=O)N3CCN(C(=O)c4ccccc4)CC3)c[nH]c12 [Example 48]	< 1000 nM	> 98%
O=C(C(=O)N1CCN(C(=O)c2ccccc2)CC1)c1c[nH]c2c(-c3nc4ccccc4[nH]3)ccc(F)c12 [Example 76]	< 1000 nM	> 98%
CC(=O)Nc1nc(-c2ccc(F)c3c(C(=O)C(=O)N4CCN(C(=O)c5ccccc5)CC4)c[nH]c23)no1 [Example 96]	< 1000 nM	
CS(=O)(=O)NC(=O)c1cccc2c(C(=O)C(=O)N3CCN(C(=O)c4ccccc4)CC3)c[nH]c12 [Example 61]	1000 to 5000 nM	75%
C[C@@H]1CN(C(=O)c2ccccn2)CCN1C(=O)C(=O)c1c[nH]c2c(-c3ncon3)ccc(F)c12 [Example 192]	< 1000 nM	
O=C(C(=O)N1CCN(C(=O)c2ccccc2)CC1)c1c[nH]c2c(-c3noc(NC4CC4)n3)ccc(F)c12 [Example 82]	< 1000 nM	> 98%
O=C(O)c1cc(-c2ccc(F)c3c(C(=O)C(=O)N4CCN(C(=O)c5ccccc5)CC4)c[nH]c23)[nH]n1 [Example 88]	< 1000 nM	
O=C(C(=O)N1CCN(C(=O)c2ccccc2)CC1)c1c[nH]c2c(-c3ccsc3)ccc(F)c12 [Example 13]	< 1000 nM	> 98%
O=C(C(=O)N1CCN(C(=O)c2ccccc2)CC1)c1c[nH]c2c(-c3nnn(CCN4C(=O)c5ccccc5C4=O)n3)ccc(F)c12 [Example 113]	< 1000 nM	
O=C(C(=O)N1CCN(C(=O)c2c(F)cccc2F)CC1)c1c[nH]c2c(-c3ncon3)ccc(F)c12 [Example 150B]	< 1000 nM	
COC(=O)Cn1cnc(-c2ccc(F)c3c(C(=O)C(=O)N4CCN(C(=O)c5ccccc5)CC4)c[nH]c23)n1 [Example 144]	< 1000 nM	
CC(C)(C)NC(=O)NNC(=O)c1ccc(F)c2c(C(=O)C(=O)N3CCN(C(=O)c4ccccc4)CC3)c[nH]c12 [Example 133]	< 1000 nM	
O=C(C(=O)N1CCN(C(=O)c2ccccn2)CC1)c1c[nH]c2c(-c3nnn(C(F)F)n3)ccc(F)c12 [Example 149]	< 1000 nM	

Compound	EC50	inhibition at 10 µM
COc1ccc(C(C)=O)c2[nH]cc(C(=O)C(=O)N3CCN(C(=O)c4ccccc4)CC3)c12 [Example 119]	< 1000 nM	
O=C(C(=O)N1CCN(C(=O)c2ccccc2)CC1)c1c[nH]c2c(-c3nnc(C(Cl)(Cl)Cl)o3)ccc(F)c12 [Example 193]	< 1000 nM	
O=C(C(=O)N1CCN(C(=O)c2ccccc2)CC1)c1c[nH]c2c(-n3cncn3)ccc(F)c12 [Example 118]	< 1000 nM	
O=C(C(=O)N1CCN(C(=O)c2cccc([N+](=O)[O-])c2)CC1)c1c[nH]c2c(-c3ncon3)ccc(F)c12 [Example 150A]	< 1000 nM	
N=C(NC1CC1)c1ccc(F)c2c(C(=O)C(=O)N3CCN(C(=O)c4ccccc4)CC3)c[nH]c12 [Example 75]	< 1000 nM	> 98%
N/C(=N\O)c1ccc(F)c2c(C(=O)C(=O)N3CCN(C(=O)c4ccccc4)CC3)c[nH]c12 [Example 27]	< 1000 nM	> 98%
O=C(C(=O)N1CCN(C(=O)c2ccccc2)CC1)c1c[nH]c2c(C3=NCCN3)ccc(F)c12 [Example 163]	< 1000 nM	
CNc1nc(-c2ccc(F)c3c(C(=O)C(=O)N4CCN(C(=O)c5ccccc5)CC4)c[nH]c23)no1 [Example 157]	< 1000 nM	
CNC(=O)c1ccc(F)c2c(C(=O)C(=O)N3CCN(C(=O)c4ccccc4)CC3)c[nH]c12 [Example 47]	< 1000 nM	> 98%
CSc1ccccc1-c1ccc(F)c2c(C(=O)C(=O)N3CCN(C(=O)c4ccccc4)CC3)c[nH]c12 [Example 2]	< 1000 nM	> 98%
CCOC(=O)c1cc(-c2ccc(F)c3c(C(=O)C(=O)N4CCN(C(=O)c5ccccc5)CC4)c[nH]c23)on1 [Example 87]	< 1000 nM	
C[C@@H]1CN(C(=O)c2ccccc2)CCN1C(=O)C(=O)c1c[nH]c2c(-c3noc(C(F)(F)F)n3)ccc(F)c12 [Example 180]	< 1000 nM	
NNC(=O)c1ccc(F)c2c(C(=O)C(=O)N3CCN(C(=O)c4ccccc4)CC3)c[nH]c12 [Example 92]	< 1000 nM	
COc1ccc(C(N)=O)c2[nH]cc(C(=O)C(=O)N3CCN(C(=O)c4ccccc4)CC3)c12 [Example 148]	< 1000 nM	
O=C(C(=O)N1CCN(C(=O)c2ccccc2)CC1)c1c[nH]c2c(-c3cccnc3)ccc(F)c12 [Example 6]	< 1000 nM	> 98%
O=C(C(=O)N1CCN(C(=O)c2ccccc2)CC1)c1c[nH]c2c(-c3noc(C(Cl)(Cl)Cl)n3)ccc(F)c12 [Example 81]	< 1000 nM	
CCOC(=O)c1cc(-c2ccc(F)c3c(C(=O)C(=O)N4CCN(C(=O)c5ccccc5)CC4)c[nH]c23)[nH]n1 [Example 86]	< 1000 nM	
O=C(C(=O)N1CCN(C(=O)c2ccccn2)CC1)c1c[nH]c2c(-c3ncon3)ccc(F)c12 [Example 191]	< 1000 nM	
CNC(=O)c1c[nH]c(-c2ccc(F)c3c(C(=O)C(=O)N4CCN(C(=O)c5ccccc5)CC4)c[nH]c23)n1 [Example 147]	< 1000 nM	
CC1CN(C(=O)C(=O)c2c[nH]c3c(-c4ncon4)ccc(F)c23)CCN1C(=O)c1ccccc1 (stereo not drawn) [Example 123]	< 1000 nM	
CNC(=O)c1nc(-c2ccc(F)c3c(C(=O)C(=O)N4CCN(C(=O)c5ccccc5)CC4)c[nH]c23)no1 [Example 102]	< 1000 nM	
O=C(C(=O)N1CCN(C(=O)c2ccccc2)CC1)c1c[nH]c2c(-c3cccs3)ccc(F)c12 [Example 12]	< 1000 nM	> 98%
C[C@@H]1CN(C(=O)c2ccccc2)CCN1C(=O)C(=O)c1c[nH]c2c(C(=O)N3CCN(Cc4ccccc4)CC3)cccc12 [Example 68]	< 1000 nM	> 98%
Cc1nc(-c2ccc(F)c3c(C(=O)C(=O)N4CCN(C(=O)c5ccccc5)CC4)c[nH]c23)no1 [Example 80]	< 1000 nM	> 98%
CCN(CC)CCNC(=O)c1cccc2c(C(=O)C(=O)N3CCN(C(=O)c4ccccc4)C[C@H]3C)c[nH]c12 [Example 66]	< 1000 nM	98%
O=C(C(=O)N1CCN(C(=O)c2ccccc2)CC1)c1c[nH]c2c(-c3nc[nH]n3)ccc(F)c12 [Example 111]	< 1000 nM	
